Assay [1] deals with Ba/F3-FGFR1-transfected cells. The assay is described as follows: Ba/F3-FGFR1 (minus IL3 or plus IL3) cellular proliferation assay. The format is cell-based. Particulars: plus 10 ng/ml murine IL3 (counterscreen); for IC50: 24 h, read-out: BAF3-FGFR1 (PLUS IL3) pIC50 (converted). How it is done:
(§1) Ba/F3-FGFR1 (Minus IL3 or Plus IL3) (Cellular Proliferation Assay)
(§2) In a 384 well plate, 100 nl of compound dilution in DMSO was sprayed before adding 50 μl cell culture medium (phenol red free RPMI-1640, 10% FBS, 2 mM L-Glutamine and 50 μg/ml Gentamycin) containing 20000 cells per well of Ba/F3-FGFR1-transfected cells. Cells were put in an incubator at 37° C. and 5% CO2. After 24 hours, 10 μl of Alamar Blue solution (0.5 mM K3Fe(CN)6, 0.5 mM K4Fe(CN)6, 0.15 mM Resazurin and 100 mM Phosphate Buffer) was added to the wells, incubated for 4 hours at 37° C. and 5% CO2 before RFU's (Relative Fluorescence Units) (ex. 540 nm., em. 590 nm.) were measured in a fluororescence plate reader.
(§3) In this assay, the inhibitory effect of different compound concentrations (range 10 μM to 0.1 nM) was determined and used to calculate an IC50 (M) and pIC50 (−log IC50) value.
(§4) As a counterscreen the same experiment was performed in the presence of 10 ng/ml murine IL3.

Assay [2] has as its target T1, Ba/F3-FGFR1-transfected cells (Homo sapiens, UniProt P11362).
T1 construct: BAF3-FGFR1 (MIN IL3) pIC50; other: minus IL3
The assay is described as above. The class given is cell-based. The settings on record: minus IL3. How it is done: as §1, §2, §3, §4

For assay [3], the target named is T2, Ba/F3-Flt3-transfected cells (Homo sapiens, UniProt P36888, cells depend on it, form not given).
T2 construct: BAF3-FLT3 (MIN IL3) pIC50; other: minus IL3
T2 sequence (P36888 1-993): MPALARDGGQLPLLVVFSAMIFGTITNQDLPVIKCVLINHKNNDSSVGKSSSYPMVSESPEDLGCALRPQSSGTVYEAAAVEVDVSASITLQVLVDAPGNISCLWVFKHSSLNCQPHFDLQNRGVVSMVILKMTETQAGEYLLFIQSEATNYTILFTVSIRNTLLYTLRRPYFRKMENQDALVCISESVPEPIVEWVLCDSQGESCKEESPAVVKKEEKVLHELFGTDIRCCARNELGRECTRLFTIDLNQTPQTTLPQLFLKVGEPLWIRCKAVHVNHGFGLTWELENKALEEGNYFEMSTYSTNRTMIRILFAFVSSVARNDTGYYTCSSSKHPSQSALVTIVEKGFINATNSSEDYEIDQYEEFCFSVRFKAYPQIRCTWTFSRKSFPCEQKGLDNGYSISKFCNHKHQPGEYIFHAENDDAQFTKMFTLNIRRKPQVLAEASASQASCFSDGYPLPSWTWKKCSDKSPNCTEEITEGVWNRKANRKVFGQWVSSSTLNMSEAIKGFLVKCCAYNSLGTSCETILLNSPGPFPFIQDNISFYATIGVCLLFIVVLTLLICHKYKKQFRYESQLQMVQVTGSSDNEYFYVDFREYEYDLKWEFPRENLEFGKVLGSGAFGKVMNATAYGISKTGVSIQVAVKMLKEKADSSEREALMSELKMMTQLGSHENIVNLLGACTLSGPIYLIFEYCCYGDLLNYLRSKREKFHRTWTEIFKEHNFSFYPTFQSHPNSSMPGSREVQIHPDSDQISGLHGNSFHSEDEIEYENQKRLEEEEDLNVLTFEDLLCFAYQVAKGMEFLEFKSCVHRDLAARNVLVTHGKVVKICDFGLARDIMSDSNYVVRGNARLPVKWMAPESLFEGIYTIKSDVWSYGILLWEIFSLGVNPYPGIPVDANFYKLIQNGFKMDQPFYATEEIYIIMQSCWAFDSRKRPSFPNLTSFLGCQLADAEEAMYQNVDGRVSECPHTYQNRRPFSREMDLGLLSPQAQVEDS
The assay is described as follows: Ba/F3-Flt3 (minus IL3 or plus IL3) cellular proliferation assay. The settings on record: minus IL3. The format is cell-based. The method, then:
Ba/F3-Flt3 (Minus IL3 or Plus IL3) (Cellular Proliferation Assay)
as §2, with “Ba/F3-Flt3-transfected” for “Ba/F3-FGFR1-transfected”
as §3, §4

For the next assay, the target named is FGFR1 (h) (Homo sapiens, UniProt P11362). The assay is described as follows: FGFR1 (enzymatic assay), TR-FRET. The format is biochemical. The settings on record: 5 μM ATP; read-out: FGFR1 pIC50 (converted). The method, then: In a final reaction volume of 30 μL, FGFR1 (h) (25 ng/ml) was incubated with 50 mM HEPES pH 7.5, 6 mM MnCl2, 1 mM DTT, 0.1 mM Na3VO4, 0.01% Triton-X-100, 500 nM Btn-Flt3 and 5 μM ATP in the presence of compound (1% DMSO final). After incubation for 60 minutes at room temperature the reaction was stopped with 2.27 nM EU-anti P-Tyr, 7 mM EDTA, 31.25 nM SA-XL-665 and 0.02% BSA which was present for 60 minutes at room temperature. Time-Resolved Fluorescence Resonance Energy Transfer (TR-FRET) signal (ex340 nm. Em 620 nm, em 655 nm) was measured afterwards and results are expressed in RFU (Relative Fluorescence Units). In this assay, the inhibitory effect of different compound concentrations (range 10 μM to 0.1 nM) was determined and used to calculate an IC50 (M) and pIC50 (−log IC50) value.
Chain of FGFR1 (h) (P11362 22-822): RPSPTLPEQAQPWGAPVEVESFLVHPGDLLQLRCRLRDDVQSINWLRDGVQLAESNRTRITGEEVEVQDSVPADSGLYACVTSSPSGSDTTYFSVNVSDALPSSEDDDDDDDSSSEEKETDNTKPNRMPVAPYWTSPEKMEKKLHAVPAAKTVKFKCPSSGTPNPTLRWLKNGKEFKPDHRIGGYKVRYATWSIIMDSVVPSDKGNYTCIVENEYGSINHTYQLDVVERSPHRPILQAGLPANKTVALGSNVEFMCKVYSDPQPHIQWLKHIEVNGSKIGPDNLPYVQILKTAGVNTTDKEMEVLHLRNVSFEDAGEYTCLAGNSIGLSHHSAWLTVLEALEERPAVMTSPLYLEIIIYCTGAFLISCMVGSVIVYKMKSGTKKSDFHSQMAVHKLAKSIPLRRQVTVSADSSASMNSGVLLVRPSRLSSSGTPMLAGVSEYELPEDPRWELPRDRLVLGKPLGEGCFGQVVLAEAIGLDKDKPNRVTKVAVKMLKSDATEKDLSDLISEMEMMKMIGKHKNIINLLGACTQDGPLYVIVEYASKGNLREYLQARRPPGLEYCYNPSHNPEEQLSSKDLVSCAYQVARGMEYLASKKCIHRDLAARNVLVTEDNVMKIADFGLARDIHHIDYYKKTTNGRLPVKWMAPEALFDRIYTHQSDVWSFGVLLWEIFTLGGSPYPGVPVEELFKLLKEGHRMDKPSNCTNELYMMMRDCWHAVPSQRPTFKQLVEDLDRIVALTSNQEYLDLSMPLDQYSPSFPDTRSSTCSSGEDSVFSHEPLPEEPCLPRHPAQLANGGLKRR

T1 sequence (P11362 whole entry, change not shown): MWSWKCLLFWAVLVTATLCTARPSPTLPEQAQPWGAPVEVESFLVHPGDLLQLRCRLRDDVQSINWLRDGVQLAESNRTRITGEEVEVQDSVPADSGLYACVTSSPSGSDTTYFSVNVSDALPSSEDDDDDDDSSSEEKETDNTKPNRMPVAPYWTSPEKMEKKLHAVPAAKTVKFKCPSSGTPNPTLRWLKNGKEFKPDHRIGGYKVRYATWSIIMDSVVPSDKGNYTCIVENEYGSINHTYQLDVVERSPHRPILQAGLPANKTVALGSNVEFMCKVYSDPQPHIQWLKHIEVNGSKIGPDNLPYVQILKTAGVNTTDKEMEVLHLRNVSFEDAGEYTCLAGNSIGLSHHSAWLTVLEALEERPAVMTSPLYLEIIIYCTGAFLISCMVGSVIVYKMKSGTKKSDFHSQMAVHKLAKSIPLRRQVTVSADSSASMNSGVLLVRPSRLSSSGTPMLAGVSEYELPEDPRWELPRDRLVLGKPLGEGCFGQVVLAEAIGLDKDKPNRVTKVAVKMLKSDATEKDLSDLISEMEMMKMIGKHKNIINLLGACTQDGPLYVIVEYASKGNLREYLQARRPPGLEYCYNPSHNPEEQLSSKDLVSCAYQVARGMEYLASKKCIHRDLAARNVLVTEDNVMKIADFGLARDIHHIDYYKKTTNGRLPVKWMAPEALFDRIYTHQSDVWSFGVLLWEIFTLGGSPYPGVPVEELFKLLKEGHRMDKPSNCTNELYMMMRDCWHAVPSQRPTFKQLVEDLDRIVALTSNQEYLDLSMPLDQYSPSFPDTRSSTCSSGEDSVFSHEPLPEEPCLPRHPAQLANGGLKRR

Consider `COc1cc(OC)cc(C(CC#N)c2ccc3ncc(-c4cnn(C)c4)nc3c2)c1` (stereo not drawn) [Compound 18], for which the IC50 in assay [1] is more than 10000 nM; on FGFR1 (h) it was 72.4 nM. The “BAF3-FGFR1 (MIN IL3) pIC50” value in assay [2] is listed as 5.6. Also, the “BAF3-FLT3 (MIN IL3) pIC50” value in assay [3] was less than 5.
As for `COc1cc(OC)cc(C(NCCNC(C)C)c2ccc3ncc(-c4cnn(C)c4)nc3c2)c1.Cl` (single isomer, unassigned) [Compound 39], the “BAF3-FGFR1 (PLUS IL3) pIC50” value in assay [1] was less than 5. For the same compound, the “BAF3-FGFR1 (MIN IL3) pIC50” value in assay [2] is recorded as less than 5. Moreover, the “BAF3-FLT3 (MIN IL3) pIC50” value in assay [3] is less than 5. For the same compound, on FGFR1 (h), the IC50 was more than 1000 nM.
Take `COc1cc(OC)cc(/C(=C/CNC(C)C)c2ccc3ncc(-c4cnn(C)c4)nc3c2)c1` [Compound 9]: the figures for the IC50 (in assay [1]; on FGFR1 (h)) were more than 10000 nM and 60.3 nM, respectively. Moreover, the “BAF3-FGFR1 (MIN IL3) pIC50” value in assay [2] is recorded as 6.51. Besides, in assay [3], the “BAF3-FLT3 (MIN IL3) pIC50” value is on record as approximately 5.05.
Consider `COc1cc(OC)cc(C(CCN)c2ccc3ncc(-c4cnn(C)c4)nc3c2)c1.Cl` (stereo not drawn) [Compound 20], for which the results for the IC50 (in assay [1]; on FGFR1 (h)) were more than 10000 nM and 77.6 nM, respectively. In addition, the “BAF3-FGFR1 (MIN IL3) pIC50” value in assay [2] was determined as 5.86. In addition, in assay [3], the “BAF3-FLT3 (MIN IL3) pIC50” value is listed as less than 5.
On to `COc1cc(OC)cc(C(CC(=O)NC(C)C)c2ccc3ncc(-c4cnn(C)c4)nc3c2)c1` (stereo not drawn) [Compound 23], for which the IC50 in assay [1] is more than 10000 nM; at FGFR1 (h), more than 1000 nM. Besides, in assay [2], the “BAF3-FGFR1 (MIN IL3) pIC50” value is listed as less than 5. For the same compound, in assay [3], the “BAF3-FLT3 (MIN IL3) pIC50” value is on record as less than 5.
Turning to `COc1cc(OC)cc(C(=O)c2ccc3ncc(-c4cnn(C)c4)nc3c2)c1` [Compound 2], the IC50 is more than 10000 nM in assay [1] and 117 nM at FGFR1 (h). For the same compound, in assay [2], the “BAF3-FGFR1 (MIN IL3) pIC50” value came out at 5.58. Moreover, in assay [3], the “BAF3-FLT3 (MIN IL3) pIC50” value was less than 5.
The matching figures for `COc1cc(OC)cc(C(O)(CNCCNC(C)C)c2ccc3ncc(-c4cnn(C)c4)nc3c2)c1` (single isomer, unassigned) [Compound 5]: more than 10000 nM, 603 nM, less than 5 and less than 5.
Consider `COc1cc(OC)cc(/C(=C\CN(C)C)c2ccc3ncc(-c4cnn(C)c4)nc3c2)c1` [Compound 10, {(Z)-3-(3,5-Dimethoxy-phenyl)-3-[3-(1-methyl-1H-pyrazol-4-yl)-quinoxalin-6-yl]-allyl}-dimethyl-amine], for which the IC50 in assay [1] is more than 10000 nM; at FGFR1 (h), 17 nM. Besides, in assay [2], the “BAF3-FGFR1 (MIN IL3) pIC50” value turned out to be 5.81. For the same compound, the “BAF3-FLT3 (MIN IL3) pIC50” value in assay [3] was less than 5.
Turning to `COc1cc(OC)cc(C(CCN2CCCC2=O)c2ccc3ncc(-c4cnn(C)c4)nc3c2)c1.Cl` (stereo not drawn) [Compound 7], the IC50 in assay [1] was more than 10000 nM; at FGFR1 (h), 56.2 nM. In assay [2], the “BAF3-FGFR1 (MIN IL3) pIC50” value is on record as 5.52. In addition, the “BAF3-FLT3 (MIN IL3) pIC50” value in assay [3] is recorded as less than 5.
As for `COc1cc(OC)cc(C(CCNC(C)C)c2ccc3ncc(-c4cnn(C)c4)nc3c2)c1` (single isomer, unassigned) [Compound 32a], the “BAF3-FGFR1 (PLUS IL3) pIC50” value in assay [1] is given as less than 5. Moreover, the “BAF3-FGFR1 (MIN IL3) pIC50” value in assay [2] is reported as 5.14. Moreover, the “BAF3-FLT3 (MIN IL3) pIC50” value in assay [3] is listed as less than 5. Moreover, the IC50 on FGFR1 (h) is 661 nM.
Take `CN(C)CCC(c1ccccc1)c1ccc2ncc(-c3cnn(C)c3)nc2c1` (stereo not drawn) [Compound 35]: the results for the IC50 (in assay [1]; at FGFR1 (h)) were more than 10000 nM and more than 1000 nM, respectively. Also, the “BAF3-FGFR1 (MIN IL3) pIC50” value in assay [2] is less than 5. In addition, in assay [3], the “BAF3-FLT3 (MIN IL3) pIC50” value is listed as less than 5.
On to `COc1cc(OC)cc(C(CCNCC(F)(F)F)c2ccc3ncc(-c4cnn(C)c4)nc3c2)c1.Cl` (stereo not drawn) [Compound 33], for which the IC50 was more than 10000 nM in assay [1] and 224 nM at FGFR1 (h). For the same compound, in assay [2], the “BAF3-FGFR1 (MIN IL3) pIC50” value came to 5.11. In assay [3], the “BAF3-FLT3 (MIN IL3) pIC50” value is on record as less than 5.
In the same order, the values of `COc1cc(OC)cc(/C(=C\CNC(C)C)c2ccc3ncc(-c4cnn(C)c4)nc3c2)c1` [Compound 8, {(Z)-3-(3,5-Dimethoxy-phenyl)-3-[3-(1-methyl-1H-pyrazol-4-yl)-quinoxalin-6-yl]-allyl}-isopropyl-amine] are more than 10000 nM, 7.76 nM, 6.49 and 5.09.
Turning to `COc1cc(OC)cc(C(O)(CNCCNC(C)C)c2ccc3ncc(-c4cnn(C)c4)nc3c2)c1` (single isomer, unassigned) [Compound 6], the “BAF3-FGFR1 (MIN IL3) pIC50” value in assay [2] was less than 5. In addition, the “BAF3-FLT3 (MIN IL3) pIC50” value in assay [3] is reported as less than 5. At FGFR1 (h), the IC50 is 955 nM.
Turning to `CNCC(O)(c1cc(OC)cc(OC)c1)c1ccc2ncc(-c3cnn(C)c3)nc2c1.Cl` (single isomer, unassigned) [Compound 38], the “BAF3-FGFR1 (PLUS IL3) pIC50” value in assay [1] is on record as less than 5. Besides, the “BAF3-FGFR1 (MIN IL3) pIC50” value in assay [2] was less than 5. In addition, the “BAF3-FLT3 (MIN IL3) pIC50” value in assay [3] is listed as less than 5. Also, at FGFR1 (h), the IC50 was 776 nM.
On to `COc1cc(OC)cc(C(CCO)c2ccc3ncc(-c4cnn(C)c4)nc3c2)c1` (stereo not drawn) [Compound 22], for which the IC50 in assay [1] is more than 10000 nM; on FGFR1 (h), 107 nM. In addition, the “BAF3-FGFR1 (MIN IL3) pIC50” value in assay [2] was 5.66. Besides, the “BAF3-FLT3 (MIN IL3) pIC50” value in assay [3] is on record as less than 5.
For the compound `COc1cc(OC)cc(C(CC(C)(O)CNC(C)C)c2ccc3ncc(-c4cnn(C)c4)nc3c2)c1.Cl` (stereo not drawn) [Compound 25], the results for the IC50 (in assay [1]; on FGFR1 (h)) were more than 10000 nM and 794 nM, respectively. The “BAF3-FGFR1 (MIN IL3) pIC50” value in assay [2] is recorded as less than 5. Besides, the “BAF3-FLT3 (MIN IL3) pIC50” value in assay [3] is recorded as less than 5.
Consider `COc1cc(OC)cc(C(CCNC(C)C)c2ccc3ncc(-c4cnn(C)c4)nc3c2)c1.Cl` (stereo not drawn) [Compound 29, {3-(3,5-Dimethoxy-phenyl)-3-[3-(1-methyl-1H-pyrazol-4-yl)-quinoxalin-6-yl]-propyl}-isopropyl-amine], for which the IC50 is more than 10000 nM in assay [1] and 22.9 nM at FGFR1 (h). In assay [2], the “BAF3-FGFR1 (MIN IL3) pIC50” value turned out to be 6.18. Further, the “BAF3-FLT3 (MIN IL3) pIC50” value in assay [3] is recorded as less than 5.
For the compound `COc1cc(OC)cc(C(NCCNC(C)C)c2ccc3ncc(-c4cnn(C)c4)nc3c2)c1.Cl` (single isomer, unassigned) [Compound 24], the IC50 in assay [1] was more than 10000 nM; on FGFR1 (h), 182 nM. Also, the “BAF3-FGFR1 (MIN IL3) pIC50” value in assay [2] was determined as 5.16. Besides, the “BAF3-FLT3 (MIN IL3) pIC50” value in assay [3] is on record as less than 5.
